In publication PMC9019169, “Direct Regulation of Hyperpolarization-Activated Cyclic-Nucleotide Gated (HCN1) Channels by Cannabinoids” (Frontiers in Molecular Neuroscience, 2022) one finds EC50 and IC50 data, which are given here for 2 compounds.

The target of test [1] is T1, mouse HCN1 (mHCN1) (Mus musculus, UniProt O88704).
T1 construct: full-length wild-type cDNA in pGH19, cRNA expressed in Xenopus laevis oocytes; homotetrameric channel
In words: two-electrode voltage clamp, Xenopus oocytes, Hill fit of current. It counts as cell-based. On the technique in general: In two-electrode clamp one electrode senses voltage and the other passes current.

Test [2] has as its target T1, mouse HCN1 (mHCN1). The test is described as above. To be noted: read-out: relative IC50. It counts as cell-based.

T1 sequence (O88704 whole entry): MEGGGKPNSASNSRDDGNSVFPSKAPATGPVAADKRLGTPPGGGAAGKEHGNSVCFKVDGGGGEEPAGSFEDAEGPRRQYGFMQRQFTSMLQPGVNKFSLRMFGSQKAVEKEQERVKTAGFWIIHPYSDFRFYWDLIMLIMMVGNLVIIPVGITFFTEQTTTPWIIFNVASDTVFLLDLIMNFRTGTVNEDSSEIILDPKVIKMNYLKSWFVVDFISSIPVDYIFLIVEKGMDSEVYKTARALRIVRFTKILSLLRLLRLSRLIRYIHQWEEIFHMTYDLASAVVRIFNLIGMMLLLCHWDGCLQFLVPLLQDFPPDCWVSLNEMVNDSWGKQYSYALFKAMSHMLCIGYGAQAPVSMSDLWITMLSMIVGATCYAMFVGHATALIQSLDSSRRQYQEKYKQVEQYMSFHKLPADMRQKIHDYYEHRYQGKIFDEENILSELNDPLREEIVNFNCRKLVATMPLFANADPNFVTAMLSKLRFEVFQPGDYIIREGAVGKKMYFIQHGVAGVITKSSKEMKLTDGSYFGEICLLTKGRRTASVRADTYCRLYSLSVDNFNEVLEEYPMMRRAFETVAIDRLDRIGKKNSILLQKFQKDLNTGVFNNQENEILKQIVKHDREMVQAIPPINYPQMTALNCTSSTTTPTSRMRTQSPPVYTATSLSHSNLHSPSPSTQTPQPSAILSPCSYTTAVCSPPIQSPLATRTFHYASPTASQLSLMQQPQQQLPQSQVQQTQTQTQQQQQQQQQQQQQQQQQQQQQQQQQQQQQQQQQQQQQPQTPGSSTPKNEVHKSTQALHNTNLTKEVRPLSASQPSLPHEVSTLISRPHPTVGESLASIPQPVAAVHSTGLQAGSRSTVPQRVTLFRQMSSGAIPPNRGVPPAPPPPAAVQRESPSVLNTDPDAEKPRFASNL

Broadly, the EC50 is the concentration at which the effect is half-maximal. The low end stands for greater potency, the high end for weaker potency. `C=C(C)[C@@H]1CCC(C)=C[C@H]1c1c(O)cc(CCCCC)cc1O` [cannabidiol]: on mouse HCN1 (mHCN1) [1], the EC50 was determined as 28.5 µM. The term IC50 denotes the concentration that inhibits the measured activity by half. Consider `CCCCCc1cc(O)c2c(c1)OC(C)(C)[C@@H]1CCC(C)=C[C@@H]21` [Δ9-tetrahydrocannabinol], for which, at mouse HCN1 (mHCN1) [2], the IC50 came out at 21.8 µM.
